Source: patent US20130115257A1, “COMPOSITIONS AND METHODS FOR REMOVAL OR DESTRUCTION OF AMYLOID FIBRIL OR AMYLOID ADHESIN COMPRISING AGGREGATES” (KATHOLIEKE UNIVERSITEIT LEUVEN, priority 2010, published 2013)
Entries after “also recorded” stand apart in the source; their conditions may differ. Counter-ions that a name gives are not always drawn.

Tests used:
[1] = test system: amyloid fibrils from insulin; experiment: Atomic force microscopy of insulin amyloid fibrils incubated with Congo red; format: binding; settings: 140 μmol/L CR in water, 2 hours, fibrils on silicon surface
Experimental: (§1) Amyloid fibrils from the insulin hormone were obtained by dissolving insulin (3.5 mmol/L) in water adjusted to pH 2 with HCl and heated to 70° C. for 2 hours. Samples were diluted to a concentration of 7 μmol/L at room temperature and transferred to a piranha (4:1, H2SO4:H2O2) cleaned naturally oxidized silicon wafer. After 15 minutes of incubation the silicon surface was rinsed with water. The amyloid fibers on the silicon surface are then incubated with a 140 μmol/L solution of CR in water during 2 hours and successively rinsed with water.

[2] = water; organic solvents such as ethanol; cited from earlier work
[3] = test system: Congo Red-amyloid fibril complex (insulin fibrils); experiment: AFM of Congo Red-amyloid fibril complex after incubation with metal ions or colloids (fibril disintegration); settings: CR-stained insulin fibrils, 5 mmol/L silver ions, 15 minutes; for disintegration of the dye-amyloid fibers (AFM image): rinsed and dried
Experimental: as §1
The predominant particles are soluble dimers and higher order aggregates with the hydrophobic regions sequestered from the aqueous environment (D. Watson et al., Neurological Research 27, 869-881 (2005)). The soluble oligomeric amyloid-beta peptides are the principal constituent of amyloid deposits such as plaques and intraneuronal tangles.
The positively charged metal ions bind to the negatively charged sulfonate groups of the dye and interfere with the electrostatic bond between the negatively charged group of the CR molecule and the basic amino acid side chain of the fibril. This way the dye-peptide bond is disrupted at the monomer level, which causes the disintegration of the fibril. Our in vitro study points out that neurodegenerative disorders can be treated by negatively charged molecules, like CR which intercalate between the amyloid β-strands and induce a destabilization of the CR-fibril complex when metallic ions such as silver ions are introduced.

insulin fibrils = experiment: Fluorescence microscopy of dye-amyloid fibril complexes; format: binding; settings: insulin fibrils incubated with CR
From the text: The dye-amyloid fibril complexes were also imaged with fluorescence microscopy, as CR is a fluorophore. […] Bright contrast in the fluorescence images corresponds to the presence of the fluorophore on the insulin fibrils, which themselves are not fluorescent.

Molecule: Nc1c(/N=N/c2ccc(-c3ccc(/N=N/c4cc(S(=O)(=O)O)c5ccccc5c4N)cc3)cc2)cc(S(=O)(=O)O)c2ccccc12 [Congo red, sodium salt of benzidinediazo-bis-1-naphthylamine-4-sulfonic acid]
- average cross section of the dye-amyloid fiber (AFM) [1]: same dimension as in the absence of CR
- solubility [2]: water soluble; also recorded: solubility is better in organic solvents such as ethanol
- disintegration of the dye-amyloid fibers (AFM image) [3]: total disintegration of the amyloid fibrils into peptide monomers
- presence of the fluorophore on the insulin fibrils (fluorescence images) (insulin fibrils): bound or intercalated evenly in the insulin fibrils

Molecule: silver ions
- heights of the particles left after disintegration (AFM) [3]: 1-2 nm
- disintegration of the dye-amyloid fibers (AFM image) [3]: total disintegration
